Key:
[1] = during tablet manufacture and storage
[2] = across the physiological pH range; cited from earlier work
dopamine receptors = conditions: compared to pramipexole; cited from earlier work
[3] = test system: eosinophil counts in human blood and tissues; conditions: cited from earlier work

Row | SMILES | chiral purity over time [1] | solubility [2] | affinity for dopamine receptors (dopamine receptors) | effect on eosinophil counts [3]
1 | CCCN[C@@H]1CCc2nc(N)sc2C1 | did not change over time | freely soluble | – | –
2 | CCCN[C@@H]1CCc2nc(N)sc2C1 [dexpramipexole, (6R)-2-amino-4,5,6,7-tetrahydro-6-(propylamino)benzothiazole] | – | – | greatly reduced when compared to pramipexole | selectively and significantly lower eosinophil counts

Reference: patent publication US20250205207A1, “MATRIX TABLETS OF DEXPRAMIPEXOLE AND METHODS OF MANUFACTURING AND USE THEREOF” (Areteia Therapeutics, Inc., priority 2023, published 2025)
